Key:
HUVECS [1] = assay: HUVEC cell viability (mts, absorbance 490 and 595 nm) after antisense with or without drug; assay type: cell-based, human
Experimental: HUVECS were grown for 2 days in wells after seeding at 1200 per well. Antisense oligonucleotide of Seq. ID No. 5 (4 μg/ml with lipofectin) was added in serum free medium and incubated with the cells for 4 hours. Then 100 μl of serum was added and incubation was continued overnight. The next day, 150 μl of drug solution in serum medium was added. After two days, 20 μl of mts solution was added and left for approximately 3 hours. Cell viability was determined as the difference between absorption at 490 and 595 nm.

HUVECS [2] = conditions: by the induction of apoptosis; cited from earlier work
[3] = Table 2, Drug alone (100 nM camptothecin)
[4] = Table 3, Drug alone (200 nM doxorubicin)
[5] = Table 1, Drug alone (100 nM paclitaxel)
[6] = Table 1 (paclitaxel series), AS 50 nM, no drug
[7] = Table 1 (paclitaxel series), AS 100 nM, no drug
[8] = Table 1 (paclitaxel series), AS 200 nM, no drug
[9] = Table 1, Drug (100 nM paclitaxel) + AS 50 nM
[10] = Table 1, Drug (100 nM paclitaxel) + AS 100 nM
[11] = Table 1, Drug (100 nM paclitaxel) + AS 200 nM
[12] = Table 2 (camptothecin series), AS 50 nM, no drug
[13] = Table 2 (camptothecin series), AS 100 nM, no drug
[14] = Table 2 (camptothecin series), AS 200 nM, no drug
[15] = Table 2, Drug (100 nM camptothecin) + AS 50 nM
[16] = Table 2, Drug (100 nM camptothecin) + AS 100 nM
[17] = Table 2, Drug (100 nM camptothecin) + AS 200 nM
[18] = Table 3 (doxorubicin series), AS 50 nM, no drug
[19] = Table 3 (doxorubicin series), AS 100 nM, no drug
[20] = Table 3 (doxorubicin series), AS 200 nM, no drug
[21] = Table 3, Drug (200 nM doxorubicin) + AS 50 nM
[22] = Table 3, Drug (200 nM doxorubicin) + AS 100 nM
[23] = Table 3, Drug (200 nM doxorubicin) + AS 200 nM

CC[C@@]1(O)C(=O)OCc2c1cc1n(c2=O)Cc2cc3ccccc3nc2-1 [camptothecin, reference compound]
absorbance at 490 nm (HUVECS [1]; [3]): 0.55
absorbance at 595 nm (HUVECS [1]; [3]): 0.07
concentration range that inhibits Huvecs (HUVECS [2]): low nanomolar range

COc1cccc2c1C(=O)c1c(O)c3c(c(O)c1C2=O)C[C@@](O)(C(=O)CO)C[C@@H]3O[C@H]1C[C@H](N)[C@H](O)[C@H](C)O1 [doxorubicin, reference compound]
absorbance at 490 nm (HUVECS [1]; [4]): 0.74
absorbance at 595 nm (HUVECS [1]; [4]): 0.08
concentration range that inhibits Huvecs (HUVECS [2]): low nanomolar range

CC(=O)O[C@H]1C(=O)[C@@]2(C)[C@H]([C@H](OC(=O)c3ccccc3)[C@]3(O)C[C@H](OC(=O)[C@H](O)[C@@H](NC(=O)c4ccccc4)c4ccccc4)C(C)=C1C3(C)C)[C@]1(OC(C)=O)CO[C@@H]1C[C@@H]2O [paclitaxel, reference compound]
absorbance at 490 nm (HUVECS [1]; [5]): 0.53
absorbance at 595 nm (HUVECS [1]; [5]): 0.12
concentration range that inhibits Huvecs (HUVECS [2]): low nanomolar range

AS: Antisense oligonucleotide of Seq. ID No. 5, reduces the effective amount of clusterin (antisense CAGCAGCAGAGTCTTCATCAT; listed as DNA, chemistry not given here)
cell viability, response to antisense in the presence of drug versus absence (HUVECS [1]; FIG. 1, in the presence of 100 nM paclitaxel): greater
cell viability, response to antisense concentration (HUVECS [1]; FIG. 1, paclitaxel series): dose dependent response
cell viability, response to antisense concentration (HUVECS [1]; FIG. 2, camptothecin series): dose dependent response
cell viability, response to antisense in the presence of drug versus absence (HUVECS [1]; FIG. 2, in the presence of 100 nM camptothecin): greater
cell viability, response to antisense concentration (HUVECS [1]; FIG. 3, doxorubicin series): dose dependent response
cell viability, response to antisense in the presence of drug versus absence (HUVECS [1]; FIG. 3, in the presence of 200 nM doxorubicin): greater
absorbance at 490 nm (HUVECS [1]; [6]): 0.66
absorbance at 595 nm (HUVECS [1]; [6]): 0.04
absorbance at 490 nm (HUVECS [1]; [7]): 0.40
absorbance at 595 nm (HUVECS [1]; [7]): 0.09
absorbance at 490 nm (HUVECS [1]; [8]): 0.28
absorbance at 595 nm (HUVECS [1]; [8]): 0.07
absorbance at 490 nm (HUVECS [1]; [9]): 0.50
absorbance at 595 nm (HUVECS [1]; [9]): 0.09
absorbance at 490 nm (HUVECS [1]; [10]): 0.24
absorbance at 595 nm (HUVECS [1]; [10]): 0.04
absorbance at 490 nm (HUVECS [1]; [11]): 0.17
absorbance at 595 nm (HUVECS [1]; [11]): 0.05
absorbance at 490 nm (HUVECS [1]; [12]): 0.66
absorbance at 595 nm (HUVECS [1]; [12]): 0.10
absorbance at 490 nm (HUVECS [1]; [13]): 0.39
absorbance at 595 nm (HUVECS [1]; [13]): 0.06
absorbance at 490 nm (HUVECS [1]; [14]): 0.21
absorbance at 595 nm (HUVECS [1]; [14]): 0.04
absorbance at 490 nm (HUVECS [1]; [15]): 0.53
absorbance at 595 nm (HUVECS [1]; [15]): 0.07
absorbance at 490 nm (HUVECS [1]; [16]): 0.31
absorbance at 595 nm (HUVECS [1]; [16]): 0.08
absorbance at 490 nm (HUVECS [1]; [17]): 0.15
absorbance at 595 nm (HUVECS [1]; [17]): 0.05
absorbance at 490 nm (HUVECS [1]; [18]): 0.66
absorbance at 595 nm (HUVECS [1]; [18]): 0.07
absorbance at 490 nm (HUVECS [1]; [19]): 0.35
absorbance at 595 nm (HUVECS [1]; [19]): 0.05
absorbance at 490 nm (HUVECS [1]; [20]): 0.22
absorbance at 595 nm (HUVECS [1]; [20]): 0.04
absorbance at 490 nm (HUVECS [1]; [21]): 0.66
absorbance at 595 nm (HUVECS [1]; [21]): 0.06
absorbance at 490 nm (HUVECS [1]; [22]): 0.32
absorbance at 595 nm (HUVECS [1]; [22]): 0.04
absorbance at 490 nm (HUVECS [1]; [23]): 0.18
absorbance at 595 nm (HUVECS [1]; [23]): 0.02
